Data from article PMC6407204, “Oral administration of the cannabigerol derivative VCE-003.2 promotes subventricular zone neurogenesis and protects against mutant huntingtin-induced neurodegeneration” (Translational Neurodegeneration, 2019).
Read-outs that look alike come from different tables or passages of the source.

Columns and labels:
CYP2D6 = target: T1, CYP2D6 (Homo sapiens, UniProt P10635); assay: biochemical; assay type: in vitro ADME; settings: Substrate = Dextromethorphan, human liver microsomes
T1 construct: from tissue; host or cells: human liver microsomes
T1 sequence (P10635 whole entry): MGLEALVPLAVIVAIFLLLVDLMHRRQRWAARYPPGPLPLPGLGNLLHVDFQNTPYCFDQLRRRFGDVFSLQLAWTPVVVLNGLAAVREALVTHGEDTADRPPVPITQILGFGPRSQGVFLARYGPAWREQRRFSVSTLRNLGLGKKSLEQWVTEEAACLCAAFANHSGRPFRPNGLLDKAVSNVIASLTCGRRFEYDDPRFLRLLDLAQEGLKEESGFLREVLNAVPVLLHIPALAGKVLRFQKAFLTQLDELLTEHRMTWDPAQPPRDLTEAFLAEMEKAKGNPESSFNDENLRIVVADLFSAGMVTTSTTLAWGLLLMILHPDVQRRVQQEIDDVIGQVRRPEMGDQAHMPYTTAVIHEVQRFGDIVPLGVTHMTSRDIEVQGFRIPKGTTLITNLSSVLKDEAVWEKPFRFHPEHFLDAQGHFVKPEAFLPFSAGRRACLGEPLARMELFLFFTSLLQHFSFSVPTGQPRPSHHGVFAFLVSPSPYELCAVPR
Procedure: (§1) Supplementary file 40035_2019_148_MOESM2_ESM.pdf: Additional file 2: Cytochrome P450 Inhibition (IC50 Determination). CYP1A Inhibition. VCE-003.2 (0.1, 0.25, 1, 2.5, 10, 25 μM in DMSO; final DMSO concentration = 0.3%) was incubated with human liver microsomes (0.25 mg/mL) and NADPH (1 mM) in the presence of the probe substrate ethoxyresorufin (0.5 μM) for 5 min at 37 °C. The selective CYP1A inhibitor, alpha-naphthoflavone, was screened alongside the test compounds as a positive control. CYP2B6 Inhibition. VCE-003.2 (0.1, 0.25, 1, 2.5, 10, 25 μM in DMSO; final DMSO concentration = 0.3%) was incubated with human liver microsomes (0.1 mg/mL) and NADPH (1 mM) in the presence of the probe substrate bupropion (110 μM) for 5 min at 37 °C. The selective CYP2B6 inhibitor, ticlopidine, was screened alongside the test compounds as a positive control. CYP2C8 Inhibition. VCE-003.2 (0.1, 0.25, 1, 2.5, 10, 25 μM in DMSO; final DMSO concentration = 0.3%) was incubated with human liver microsomes (0.25 mg/mL) and NADPH (1 mM) in the presence of the probe substrate paclitaxel (7.5 μM) for 30 min at 37 °C. The selective CYP2C8 inhibitor, montelukast, was screened alongside the test compounds as a positive control. CYP2C9 Inhibition. VCE-003.2 (0.1, 0.25, 1, 2.5, 10, 25 μM in DMSO; final DMSO concentration = 0.3%) was incubated with human liver microsomes (1 mg/mL) and NADPH (1 mM) in the presence of the probe substrate tolbutamide (120 μM) for 60 min at 37 °C. The selective CYP2C9 inhibitor, sulphaphenazole, was screened alongside the test compounds as a positive control. CYP2C19 Inhibition. VCE-003.2 (0.1, 0.25, 1, 2.5, 10, 25 μM in DMSO; final DMSO concentration = 0.3%) was incubated with human liver microsomes (0.5 mg/mL) and NADPH (1 mM) in the presence of the probe substrate mephenytoin (25 μM) for 60 min at 37 °C. The selective CYP2C19 inhibitor, tranylcypromine, was screened alongside the test compounds as a positive control. CYP2D6 Inhibition. VCE-003.2 (0.1, 0.25, 1, 2.5, 10, 25 μM in DMSO; final DMSO concentration = 0.3%) was incubated with human liver microsomes (0.5 mg/mL) and NADPH (1 mM) in the presence of the probe substrate dextromethorphan (5 μM) for 5 min at 37 °C. […] CYP3A4 Inhibition. VCE-003.2 (0.1, 0.25, 1, 2.5, 10, 25 μM in DMSO; final DMSO concentration = 0.3%) was incubated with human liver microsomes (0.1 mg/mL) and NADPH (1 mM) in the presence of the probe substrate midazolam (2.5 μM) for 5 min at 37 °C. The selective CYP3A4 inhibitor, ketoconazole, was screened alongside the test compounds as a positive control. CYP3A4 Inhibition. VCE-003.2 (0.1, 0.25, 1, 2.5, 10, 25 μM in DMSO; final DMSO concentration = 0.3%) was incubated with human liver microsomes (0.5 mg/mL) and NADPH (1 mM) in the presence of the probe substrate testosterone (50 μM) for 5 min at 37 °C. The selective CYP3A4 inhibitor, ketoconazole, was screened alongside the test compounds as a positive control. For the CYP1A incubations, the reactions were terminated by methanol, and the formation of the metabolite, resorufin, was monitored by fluorescence (excitation wavelength = 535 nm, emission wavelength = 595 nm). For the CYP2B6, CYP2C9, CYP2C19, CYP2D6, and CYP3A4 incubations, the reactions were terminated by methanol. The samples were centrifuged, and the supernatants combined for the simultaneous analysis of 4-hydroxytolbutamide, 4-hydroxymephenytoin, dextrorphan, and 1-hydroxymidazolam by LC-MS/MS. Hydroxybupropion, 6α-hydroxypaclitaxel and 6ß-hydroxytestosterone were analyzed separately by LC-MS/MS. A decrease in the formation of the metabolites compared to vehicle control was used to calculate IC50 values. (PDF 323 kb)

CYP3A4 = target: T2, CYP3A4 (Homo sapiens, UniProt P08684); assay: biochemical; assay type: in vitro ADME; settings: human liver microsomes
T2 construct: from tissue; host or cells: human liver microsomes
T2 sequence (P08684 whole entry): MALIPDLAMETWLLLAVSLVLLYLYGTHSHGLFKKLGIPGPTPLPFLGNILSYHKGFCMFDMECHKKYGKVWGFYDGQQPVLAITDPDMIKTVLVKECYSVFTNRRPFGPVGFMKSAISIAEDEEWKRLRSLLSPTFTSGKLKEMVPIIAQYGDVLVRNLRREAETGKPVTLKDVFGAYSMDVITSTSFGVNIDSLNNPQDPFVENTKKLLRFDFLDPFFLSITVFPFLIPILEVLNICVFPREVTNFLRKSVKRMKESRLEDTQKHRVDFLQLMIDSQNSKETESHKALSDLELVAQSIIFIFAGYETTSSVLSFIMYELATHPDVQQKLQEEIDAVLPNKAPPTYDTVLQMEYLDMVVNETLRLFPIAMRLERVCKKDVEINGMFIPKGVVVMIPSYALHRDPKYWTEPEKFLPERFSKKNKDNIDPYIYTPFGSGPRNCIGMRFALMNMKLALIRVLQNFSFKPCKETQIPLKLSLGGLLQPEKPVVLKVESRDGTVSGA
Procedure: as §1

[1] = Pharmacokinetics in rats, plasma and brain by LC-MS/MS; assay type: in vivo, Sprague Dawley rats; settings: rat; for concentration at 24 h: brain at 24 h; for AUC(0-t) / Cmax / Tmax: plasma; for bioavailability: oral 50 mg/kg vs i.v. 10 mg/kg, dose-corrected AUCt ratio
Procedure: Six-week old male Sprague Dawley rats (Janvier Labs, France) were located in the rodent area of Eurofins ADME Bioanalyses (Vergèze, France) and housed under standard conditions (12-h light/dark cycle) in groups with access to food and water ad libitum. Each animal was identified by an ear tag and examined for general health and welfare. Process, treatment and euthanasia were conducted according to the current procedures in use at Eurofins ADME Bioanalyses. Animals were treated with a single intravenous bolus of VCE-003.2 (10 mg/Kg in DMSO) or with oral VCE-003.2 (50 mg/Kg in sesame oil). At the prescribed times, blood (0.5 ml) was collected using a capillary tube and plasma frozen at − 20 °C until analysis. After 24 h, the animals were anesthetized and perfused with 20 mL of saline solution directly into the heart to extract the maximal blood sample from the brain. Plasma samples (100 μl) were mixed with 300 μl of acetonitrile and after protein precipitation, analysis of VCE-003.2 content was performed using LC-MS/MS (3 animals per each time point). For brain samples, the tissues were homogenized with an Ultra-turrax® using UHQ water (1/1, w/w). 100 μl of each homogenate was mixed with 300 μl of acetonitrile and the mixture centrifuged for 5 min at 25,000 g. Brain homogenate supernatants were directly measured by LC-MS/MS. Previous studies have shown that there are not significant differences between mice and rats in the main pharmacokinetic parameters of different cannabinoids, including CBG [18]. As the dose used here was different between i.v. and oral routes of administration, bioavailability was calculated taking into account the dose as follows: [AUCt (oral)/dose (oral)]/[AUCt(i.v.)/dose(i.v.)].

[2] = system: relevant cytochrome P450 isoforms; assay type: in vitro ADME; settings: human liver microsomes, up to 25 μM
Procedure: (§2) Supplementary file 40035_2019_148_MOESM2_ESM.pdf: Additional file 2: Cytochrome P450 Inhibition (IC50 Determination). CYP1A Inhibition. VCE-003.2 (0.1, 0.25, 1, 2.5, 10, 25 μM in DMSO; final DMSO concentration = 0.3%) was incubated with human liver microsomes (0.25 mg/mL) and NADPH (1 mM) in the presence of the probe substrate ethoxyresorufin (0.5 μM) for 5 min at 37 °C. The selective CYP1A inhibitor, alpha-naphthoflavone, was screened alongside the test compounds as a positive control. CYP2B6 Inhibition. VCE-003.2 (0.1, 0.25, 1, 2.5, 10, 25 μM in DMSO; final DMSO concentration = 0.3%) was incubated with human liver microsomes (0.1 mg/mL) and NADPH (1 mM) in the presence of the probe substrate bupropion (110 μM) for 5 min at 37 °C. The selective CYP2B6 inhibitor, ticlopidine, was screened alongside the test compounds as a positive control. CYP2C8 Inhibition. […] For the CYP1A incubations, the reactions were terminated by methanol, and the formation of the metabolite, resorufin, was monitored by fluorescence (excitation wavelength = 535 nm, emission wavelength = 595 nm). […] Hydroxybupropion, 6α-hydroxypaclitaxel and 6ß-hydroxytestosterone were analyzed separately by LC-MS/MS. […]

CYP1A = target: T3, CYP1A (Homo sapiens, UniProt P05177); assay type: in vitro ADME; settings: Substrate = Etoxyresorufin, human liver microsomes
T3 construct: from tissue; host or cells: human liver microsomes
T3 sequence (P05177 2-516 limits assumed): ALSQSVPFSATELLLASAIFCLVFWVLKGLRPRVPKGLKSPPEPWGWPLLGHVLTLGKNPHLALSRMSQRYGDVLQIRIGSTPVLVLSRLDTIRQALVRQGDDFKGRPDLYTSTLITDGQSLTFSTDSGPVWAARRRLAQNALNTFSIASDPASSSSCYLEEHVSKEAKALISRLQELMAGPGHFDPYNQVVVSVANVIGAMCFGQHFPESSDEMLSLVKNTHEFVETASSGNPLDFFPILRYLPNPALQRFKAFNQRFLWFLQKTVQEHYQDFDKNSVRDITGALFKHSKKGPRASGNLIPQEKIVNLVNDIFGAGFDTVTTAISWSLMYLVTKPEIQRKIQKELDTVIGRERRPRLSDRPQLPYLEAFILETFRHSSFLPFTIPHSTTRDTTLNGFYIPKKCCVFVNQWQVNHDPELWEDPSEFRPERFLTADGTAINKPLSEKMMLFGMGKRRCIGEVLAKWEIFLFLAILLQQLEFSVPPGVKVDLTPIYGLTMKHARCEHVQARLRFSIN
Procedure: as §2

[3] = male, Sprague Dawley, in vivo, iv, single i.v. 10 mg/kg
[4] = male, Sprague Dawley, in vivo, single oral 50 mg/kg in sesame oil

## CCCCCC1=C(NCC)C(=O)C(CC=C(C)CCC=C(C)C)=C(O)C1=O [VCE-003.2, 2-(3,7-dimethyl-octa-2,6-dienyl)-6-ethylamino-3-hydroxy-5-pentyl-(1,4) benzoquinone]
CYP2D6
  IC50: > 25 µM
CYP3A4; Substrate = Midazolam
  IC50: > 25 µM
CYP3A4; Substrate = Testosterone
  IC50: > 25 µM
[1]; [3]
  concentration at 24 h: 93.7 ± 37.7 ng/mL
  AUC(0-t): 475 µg·h/mL
  Cmax: 83.2 µg/mL
  Tmax: 0.08 h
[1]; male, Sprague Dawley, in vivo, single oral 50 mg/kg
  concentration at 24 h: 86.8 ± 34 ng/mL
[1]; [4]
  AUC(0-t): 327 µg·h/mL
  Cmax: 20.3 µg/mL
  Tmax: 8 h
[1]; male, Sprague Dawley, in vivo, read-out: Bioavailability
  bioavailability: 13.8%
[1]
  bioavailability: 13.77%
[2]
  inhibition of cytochrome P450 isoforms (in words): did not inhibit significantly
CYP1A
  IC50: > 25 µM
